Data published in PMC2850882, “Two additive mechanisms impair the differentiation of 'substrate-selective' p38 inhibitors from classical p38 inhibitors in vitro” (BMC Systems Biology, 2010).
Where two headings read alike, the source gives them in different places.

What was measured:
p38 = target: T1, p38 (Homo sapiens, UniProt Q16539); experiment: ATP-p38 affinity (in-house measurement); assay type: binding; settings: kinetic model parameter
T1 construct: made in house
Source text: In order to aid in the interpretation of the dual substrate assay, we developed a simple kinetic model of p38-mediated phosphorylation of two substrates: ATF2 and MK2 (diagrammed in Figure 3a). Since p38 has a single kinase domain and ATP binding site, we assumed that p38 can only act on a single substrate at a time. For each substrate, a random-order bi-substrate (substrate + ATP) reaction mechanism was assumed. Active p38 can reversibly bind ATP, with affinity KD, ATP and ATP binding is independent of further complex formation. Active p38 (ATP bound and unbound) can reversibly bind to ATF2 or MK2 to form complexes p38-ATF2 or p38-MK2, respectively. Each complex undergoes an irreversible catalysis step to form products phospho-ATF2 (and ADP) or phospho-MK2 (and ADP). The model equations are a set of ordinary differential equations written in terms of mass-action kinetics. For the case where only one substrate is present, this model reduces to the single substrate assay.

[1] = target: T2, p38 (phosphorylation of MK2) (Homo sapiens, UniProt Q16539); experiment: Single substrate assay, phospho-MK2 readout (MSD); assay type: biochemical; settings: MK2 only; measured at 30 min; ± standard error
T2 construct: made in house
T2 sequence (Q16539 whole entry): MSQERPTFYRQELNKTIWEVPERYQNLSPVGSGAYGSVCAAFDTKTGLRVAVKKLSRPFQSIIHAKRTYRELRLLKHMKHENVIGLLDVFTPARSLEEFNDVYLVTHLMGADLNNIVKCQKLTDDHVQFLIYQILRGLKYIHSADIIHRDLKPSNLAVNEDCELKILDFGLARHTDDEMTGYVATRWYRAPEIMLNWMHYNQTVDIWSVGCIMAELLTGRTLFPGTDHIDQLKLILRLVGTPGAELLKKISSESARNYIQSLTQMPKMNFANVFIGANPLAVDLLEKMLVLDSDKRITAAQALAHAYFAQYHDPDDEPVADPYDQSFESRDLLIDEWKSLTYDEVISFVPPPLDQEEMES
Description: (§1) In each case, the degree of phosphorylation serves as a readout of the activity of p38 for its respective substrate.
(§2) The ability of active p38 to phosphorylate ATF2, MK2 or both was tested in a biochemical assay. Reagents were added in the following order: compound, substrate(s), ATP, p38 for a final reaction volume of 40 ul in low protein binding 96-well plates (Immulon-1B). […] Reactions were performed in buffer containing 20 mM HEPES pH 7.5, 10 mM MgCl2, 0.01% BSA, 0.0005% Tween-20, 2% DMSO and 0.1 mM DTT. Reactions were quenched with 40 ul of buffer containing 50 mM HEPES pH 7.5, 30 mM EDTA following different incubation times. Phosphorylated ATF2 and phosphorylated MK2 were assayed as described below. Compounds were diluted in DMSO (Sigma).
Phospho-MK2 was measured with the MSD platform using an in-house assay. […] Plates were blocked with 3% MSD Blocker A in MSD Tris Wash Buffer for at least 1 hr at RT. […] Plates were incubated for > 3 hr at RT, washed 4× with 150 ul MSD Tris Wash Buffer and read on the Meso-Scale Discovery Sector imager using 2× MSD Read Buffer T.

[2] = target: T3, p38 (phosphorylation of ATF2) (Homo sapiens, UniProt Q16539); experiment: Single substrate assay, phospho-ATF2 readout (MSD); assay type: biochemical
T3 construct: made in house
T3 sequence (Q16539 whole entry): as above
Description: as §1, §2
Phospho-ATF2 was measured with the Meso-Scale Discovery (MSD) platform using an in-house assay. […] Plates were blocked with 3% MSD Blocker A in MSD Tris Wash Buffer for at least 1 hr at RT. […] Plates were incubated for > 3 hr at RT, washed 4× with 150 ul MSD Tris Wash Buffer and read on the Meso-Scale Discovery Sector imager using 2× MSD Read Buffer T.

[3] = target: T4, p38 (phosphorylation of MK2 in presence of ATF2) (Homo sapiens, UniProt Q16539); experiment: ATF2/MK2 dual substrate assay, phospho-MK2 readout (MSD); assay type: biochemical; settings: 0.5 nM p38, 100 nM ATF2, 10 nM MK2, 50 uM ATP; measured at 30 min; ± standard error
T4 construct: made in house
T4 sequence (Q16539 whole entry): as above
Description: (§3) To this end, we designed a dual-substrate assay in which p38 could simultaneously phosphorylate MK2 and/or ATF2. The assay conditions chosen were 0.5 nM p38, 100 nM ATF2, 10 nM MK2, 50 uM ATP. As with the single substrate assay, MK2 phosphorylation was assayed at 30 min and ATF2 phosphorylation was assayed at 120 min to ensure that each measurement was within the linear range of the assay. ATP levels were measured at the end of the assay, to confirm that it was not being depleted.
as §2
Phospho-MK2 was measured with the MSD platform using an in-house assay. […] Plates were incubated for > 3 hr at RT, washed 4× with 150 ul MSD Tris Wash Buffer and read on the Meso-Scale Discovery Sector imager using 2× MSD Read Buffer T.

[4] = target: T5, p38 (phosphorylation of ATF2 in presence of MK2) (Homo sapiens, UniProt Q16539); experiment: ATF2/MK2 dual substrate assay, phospho-ATF2 readout (MSD); assay type: biochemical
T5 construct: made in house
T5 sequence (Q16539 whole entry): as above
Description: as §3, §2
Phospho-ATF2 was measured with the Meso-Scale Discovery (MSD) platform using an in-house assay. […] Plates were incubated for > 3 hr at RT, washed 4× with 150 ul MSD Tris Wash Buffer and read on the Meso-Scale Discovery Sector imager using 2× MSD Read Buffer T.

[5] = target: p38-alpha (MK2 phosphorylation); set-up: method as in PMID 15362850; settings: read-out: KI, app, p38-alpha-dependent MK2 phosphorylation; cited from earlier work
[6] = target: p38-alpha (ATF-2 phosphorylation); set-up: method as in PMID 15362850; settings: read-out: KI, app, phosphorylation of ATF-2; cited from earlier work
p38-alpha (Homo sapiens) [7] = target: p38-alpha (Homo sapiens) (UniProt Q16539); settings: cited from earlier work
Sequence of p38-alpha (Homo sapiens) (Q16539 2-360): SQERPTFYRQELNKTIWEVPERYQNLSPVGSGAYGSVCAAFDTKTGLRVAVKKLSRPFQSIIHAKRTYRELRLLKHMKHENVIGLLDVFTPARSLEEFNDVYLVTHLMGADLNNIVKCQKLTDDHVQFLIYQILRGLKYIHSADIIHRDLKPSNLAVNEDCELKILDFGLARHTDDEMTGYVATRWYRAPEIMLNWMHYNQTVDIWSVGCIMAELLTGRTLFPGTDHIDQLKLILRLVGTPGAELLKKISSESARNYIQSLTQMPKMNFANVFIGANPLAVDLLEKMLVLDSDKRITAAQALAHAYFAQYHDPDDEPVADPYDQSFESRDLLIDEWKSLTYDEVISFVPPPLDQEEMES

p38-alpha (Homo sapiens) [8] = target: p38-alpha (Homo sapiens) (UniProt Q16539); settings: cited from earlier work; remark: listed apart in the source

T1 sequence (Q16539 whole entry): as the sequence (Q16539 whole entry) above
Sequence of ATF2 (P15336 whole entry): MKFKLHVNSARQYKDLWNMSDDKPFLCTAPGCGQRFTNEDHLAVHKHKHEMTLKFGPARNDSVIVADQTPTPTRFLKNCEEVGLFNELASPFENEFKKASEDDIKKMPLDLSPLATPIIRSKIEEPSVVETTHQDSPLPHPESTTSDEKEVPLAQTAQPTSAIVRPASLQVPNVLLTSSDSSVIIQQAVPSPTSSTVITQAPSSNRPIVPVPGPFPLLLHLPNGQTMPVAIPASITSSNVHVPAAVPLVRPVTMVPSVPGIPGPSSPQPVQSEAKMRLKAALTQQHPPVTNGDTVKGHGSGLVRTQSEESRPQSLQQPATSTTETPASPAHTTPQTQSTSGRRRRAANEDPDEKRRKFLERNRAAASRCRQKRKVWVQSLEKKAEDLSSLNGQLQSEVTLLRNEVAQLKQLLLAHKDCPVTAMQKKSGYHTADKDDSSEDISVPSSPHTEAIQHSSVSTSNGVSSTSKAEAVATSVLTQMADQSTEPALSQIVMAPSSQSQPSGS
Sequence of MK2 (P49137 whole entry): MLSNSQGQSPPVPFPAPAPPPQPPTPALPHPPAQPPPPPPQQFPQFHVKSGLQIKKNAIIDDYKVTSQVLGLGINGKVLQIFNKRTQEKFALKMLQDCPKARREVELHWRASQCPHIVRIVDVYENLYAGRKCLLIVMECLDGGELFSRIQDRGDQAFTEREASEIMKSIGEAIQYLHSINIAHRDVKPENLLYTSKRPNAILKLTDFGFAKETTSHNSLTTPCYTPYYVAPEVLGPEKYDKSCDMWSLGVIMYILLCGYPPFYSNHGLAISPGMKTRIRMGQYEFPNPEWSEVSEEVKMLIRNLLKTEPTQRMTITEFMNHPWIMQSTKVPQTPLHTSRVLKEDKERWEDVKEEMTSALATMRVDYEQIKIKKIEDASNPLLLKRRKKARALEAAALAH

## Nc1ncnc2c1ncn2[C@@H]1O[C@H](COP(=O)(O)OP(=O)(O)OP(=O)(O)O)[C@@H](O)[C@H]1O [ATP]
p38
  Kd: 67 µM

## O=C(CCCc1ccc(-c2ccccc2F)cc1)Nc1ccc(O)cc1 [CMPD1]
[1]
  IC50: 23.4 ± 1.9 µM
[2]; ATF2 only, measured at 120 min, ± standard error
  IC50: > 400 µM
[2]; ratio of single substrate assay IC50s
  substrate selectivity = (ATF2 IC50)/(MK2 IC50), single substrate assay: >17
[3]
  IC50: 41 ± 2.2 µM
[4]; 0.5 nM p38, 100 nM ATF2, 10 nM MK2, 50 uM ATP, measured at 120 min, ± standard error
  IC50: 27 ± 16 µM
[4]; ratio of dual substrate assay IC50s
  substrate selectivity = (ATF2 IC50)/(MK2 IC50), dual substrate assay: 0.66
[5]
  Ki: 0.33 µM
[6]
  Ki: > 20 µM

## ATF2 (from UniProt P15336)
p38-alpha (Homo sapiens) [7]
  Kd: 38 µM

## MK2 (from UniProt P49137)
p38-alpha (Homo sapiens) [8]
  Kd: 0.02 µM
